Results on 14 compounds are retold here after paper PMC12031583 (Toxins, 2025).

Several values for one entry are separate records, joined by “and”; a condition that tells them apart may be missing. Equal entries are not always repeated. Where two headings read alike, the source gives them in different places.

Data set [1] has as its target T1, α1-acid glycoprotein (AGP) (Homo sapiens, UniProt P02763). To be noted: for effect on fluorescence emission signal of AGP / logK FL Quenching: pH 7.4.
The target of data set [2] is T2, α-lactalbumin (LA, bovine) (Bos taurus, UniProt P00711). Put plainly: biochemical. Format: binding.
The target of data set [3] is T3, bovine serum albumin (BSA) (Bos taurus, UniProt P02769). Put plainly: biochemical. To be noted: logK BSA.
The subject of data set [4] is human serum albumin (HSA). To be noted: cited from earlier work.
Data set [5] relates to casein (CSN, bovine). Format: binding. The settings on record: pH 6.8.
Data set [6] has as its target T4, β-lactoglobulin (LG, bovine) (Bos taurus, UniProt P02754). Put plainly: biochemical. Format: binding.
The target of data set [7] is T2, α-lactalbumin (LA, bovine). Format: binding. The settings on record: pH 6.8.
Data set [8] has as its target T3, bovine serum albumin (BSA).
In data set [9] the target is T3, bovine serum albumin (BSA). To be noted: cited from earlier work.
For data set [10], the system named is casein (CSN, bovine). Format: binding. The settings on record: pH 6.8. The source holds these as a separate data set.
Data set [11] addresses T1, α1-acid glycoprotein (AGP). The settings on record: for logK FL Enhancement: pH 7.4.
In data set [12] the target is T1, α1-acid glycoprotein (AGP). Format: binding.
Data set [13] deals with T1, α1-acid glycoprotein (AGP). The settings on record: pH 7.4.
Data set [14] concerns the target T4, β-lactoglobulin (LG, bovine). Format: binding. To be noted: pH 6.8.
In data set [15] the target is T1, α1-acid glycoprotein (AGP). Description: in vitro.
Data set [16] deals with T1, α1-acid glycoprotein (AGP). Description: in vitro. The settings on record: pH 7.4.
Data set [17] addresses T1, α1-acid glycoprotein (AGP). Description: in vitro. The source holds these as a separate data set.

T1 sequence (P02763 19-201 limits assumed): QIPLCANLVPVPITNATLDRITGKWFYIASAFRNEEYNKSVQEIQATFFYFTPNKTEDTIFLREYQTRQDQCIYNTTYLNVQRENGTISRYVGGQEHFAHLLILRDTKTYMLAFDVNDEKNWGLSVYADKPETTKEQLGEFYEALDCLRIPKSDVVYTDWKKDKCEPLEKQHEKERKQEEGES
T4 sequence (P02754 17-178 limits assumed): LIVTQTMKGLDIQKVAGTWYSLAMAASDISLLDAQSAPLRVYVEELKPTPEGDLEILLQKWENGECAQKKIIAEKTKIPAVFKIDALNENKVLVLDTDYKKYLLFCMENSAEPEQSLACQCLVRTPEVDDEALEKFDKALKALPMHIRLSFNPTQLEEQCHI
T3 sequence (P02769 25-607 limits assumed): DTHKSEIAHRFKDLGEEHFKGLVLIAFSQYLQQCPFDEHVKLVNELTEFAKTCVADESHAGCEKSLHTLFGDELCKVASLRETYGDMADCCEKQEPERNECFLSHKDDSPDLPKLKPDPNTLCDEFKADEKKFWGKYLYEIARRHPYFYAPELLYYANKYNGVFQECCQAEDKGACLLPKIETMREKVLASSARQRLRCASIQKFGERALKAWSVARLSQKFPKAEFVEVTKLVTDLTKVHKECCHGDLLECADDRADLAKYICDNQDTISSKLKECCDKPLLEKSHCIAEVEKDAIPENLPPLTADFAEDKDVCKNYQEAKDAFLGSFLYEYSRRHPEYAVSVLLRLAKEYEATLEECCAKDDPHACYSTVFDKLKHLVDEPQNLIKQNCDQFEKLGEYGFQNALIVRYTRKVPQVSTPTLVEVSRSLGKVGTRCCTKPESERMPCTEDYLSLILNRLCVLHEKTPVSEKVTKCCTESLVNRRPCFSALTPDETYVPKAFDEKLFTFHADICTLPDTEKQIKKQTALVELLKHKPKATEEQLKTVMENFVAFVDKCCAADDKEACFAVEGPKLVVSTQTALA
T2 sequence (P00711 20-142 limits assumed): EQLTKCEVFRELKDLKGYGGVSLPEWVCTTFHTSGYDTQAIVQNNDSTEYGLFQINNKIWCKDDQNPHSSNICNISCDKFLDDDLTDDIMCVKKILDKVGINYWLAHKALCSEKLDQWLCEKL

As to `CC1=C2C(=CO[C@H](C)[C@H]2C)C(O)=C(C(=O)O)C1=O` [CIT, citrinin], the “effect on fluorescence emission signal of AGP” value (“effect … of AGP” below) in data set [1] is listed as “no or only minor decreases”.

`COc1cc2c(c3oc4cccc(O)c4c(=O)c13)[C@@H]1C=CO[C@@H]1O2` [STC, sterigmatocystin]: in data set [1], the “effect … of AGP” value is listed as “larger, concentration-dependent decreases”. Also, the “effect of LA on mycotoxin level (free fraction) in supernatant” value in data set [2] (pH 6.8) was “not influenced”. The Kd in [3] is 100 µM and 105 µM. In addition, the “K value of STC–HSA complex” value in data set [4] is “≈ 2 × 10^4 L/mol”. Moreover, the “effect of CSN on mycotoxin level (free fraction) in supernatant” value in data set [5] was “not influenced”. For the same compound, in [6] (pH 6.8), the “effect of LG on mycotoxin level (free fraction) in supernatant” value is “not influenced”.

Take aflatoxin B1 [AFB1]: the “quenching effect on fluorescence emission signal of LA” value (from here on “quenching effect”) in [7] is given as “slight”. Further, the “effect … of AGP” value in [1] was “no or only minor decreases”. The “effect of LA on mycotoxin level (free fraction) in supernatant” value in data set [2] (pH 6.8) is listed as “did not modify”. Moreover, the “logK BSA” value in data set [8] (pH 6.8) is 4.1 and 4.11 ± 0.02. The “logK of AFB1–BSA” value in data set [9] is recorded as “≈ 4.5”. Besides, the “logK CSN” value in data set [5] is 3.3 and 3.34 ± 0.03. In addition, the “effect of LG on mycotoxin level (free fraction) in supernatant” value in [6] (pH 6.8) is listed as “did not modify”. The “effect on fluorescence emission signal of CSN” value in [10] is listed as “slight decreases”.

On to `CC(=O)C1=C(O)[C@@H]2[C@H]3c4c[nH]c5cccc(c45)C[C@H]3C(C)(C)N2C1=O` [CPA, cyclopiazonic acid], for which, in data set [1], the “effect … of AGP” value is recorded as “no or only minor decreases”.

For `CCCC[C@@H](C)[C@@H](OC(=O)C[C@@H](CC(=O)O)C(=O)O)[C@H](C[C@@H](C)C[C@H](O)CCCC[C@@H](O)C[C@H](O)[C@H](C)N)OC(=O)C[C@@H](CC(=O)O)C(=O)O` [FB1, fumonisin B1], in data set [1], the “effect … of AGP” value is recorded as “no or only minor decreases”.

With `C[C@H]1CCC[C@@H](O)CCC/C=C/c2cc(O)cc(O)c2C(=O)O1` [β-ZEL, β-zearalenol], in [11], the “logK ± SEM 1. (FL enhancement)” value amounted to 5.83 ± 0.04, the “logK ± SEM 2. (FL enhancement)” value worked out at 5.94 ± 0.16, the “logK ± SEM 3. (FL enhancement)” value amounted to 6.04 ± 0.11 and the “logK FL Enhancement” value was 5.94 ± 0.06. Further, in [1], the “logK ± SEM 1. (FL quenching)” value amounted to 5.76 ± 0.06, the “logK ± SEM 2. (FL quenching)” value worked out at 5.82 ± 0.09, the “logK ± SEM 3. (FL quenching)” value came out at 5.76 ± 0.08 and the “logK FL Quenching” value is 5.78 ± 0.02. In [4], the “logK of complex with HSA” value is listed as 4.3. Further, in data set [12], the “binding constant (K) of mycotoxin–AGP complex” value was roughly 600000 L/mol and the “fold higher affinity to AGP compared to HSA” value is roughly 30 fold. The “logK Ultracentrifugation” value in data set [13] came to 5.73 ± 0.02.

Take `CC1=C[C@H]2O[C@@H]3[C@H](O)C[C@](C)([C@@]2(CO)[C@H](O)C1=O)[C@]31CO1` [DON, deoxynivalenol]: in [1], the “effect … of AGP” value was “no or only minor decreases”.

For `C[C@H]1CCC[C@H](O)CCC/C=C/c2cc(O)cc(O)c2C(=O)O1` [α-ZEL, α-zearalenol], in [11], the “logK ± SEM 1. (FL enhancement)” value came out at 5.46 ± 0.06, the “logK ± SEM 2. (FL enhancement)” value stood at 5.46 ± 0.08, the “logK ± SEM 3. (FL enhancement)” value turned out to be 5.62 ± 0.07 and the “logK FL Enhancement” value stood at 5.51 ± 0.05. In addition, the “quenching effect” value in data set [7] is reported as “slight”. For the same compound, in data set [1], the “logK ± SEM 1. (FL quenching)” value was 5.57 ± 0.07, the “logK ± SEM 2. (FL quenching)” value came to 5.67 ± 0.05, the “logK ± SEM 3. (FL quenching)” value is listed as 5.70 ± 0.06 and the “logK FL Quenching” value came out at 5.65 ± 0.04. The “logK LA” value in data set [2] (pH 6.8) was determined as 2.92 ± 0.06. Further, the “fold higher affinity (binding constant) to BSA vs CSN” value (from here on “fold higher affinity … vs CSN”) in data set [8] is on record as “approximately 20 fold”. The “logK of ZEN–BSA and α-ZEL–BSA complexes” value in data set [9] was 4.5. Also, the “logK of complex with HSA” value in [4] is given as 4.7. In addition, in data set [12], the “binding constant (K) of mycotoxin–AGP complex” value was “approximately 3 × 10^5 L/mol” and the “fold higher affinity to AGP compared to HSA” value is reported as roughly 5 fold. Besides, the “logK CSN” value in data set [5] amounted to 3.54 ± 0.01. For the same compound, in data set [6] (pH 6.8), the “logK LG” value is listed as 3.35 ± 0.03. Besides, the “effect on fluorescence emission signal of CSN” value in data set [10] was “slight decreases”. The “logK Ultracentrifugation” value in data set [13] was found to be 5.48 ± 0.07.

For the compound aflatoxin M1 [AFM1], the “effect of LA on mycotoxin level (free fraction) in supernatant” value in data set [2] (pH 6.8) is recorded as “did not show interactions”. Moreover, the “fold higher affinity … vs CSN” value in data set [8] came out at 10 fold. Further, the “logK BSA” value in [8] (pH 6.8) is given as 3.80 ± 0.03. For the same compound, in data set [5], the “logK CSN” value came out at 2.70 ± 0.08. For the same compound, in [6] (pH 6.8), the “effect of LG on mycotoxin level (free fraction) in supernatant” value was “did not show interactions”.

With `CC(=O)OC[C@]12C[C@H](OC(=O)CC(C)C)C(C)=C[C@H]1O[C@@H]1[C@H](O)[C@@H](OC(C)=O)[C@@]2(C)[C@]12CO2` [T2, T-2 toxin], the “effect … of AGP” value in data set [1] is given as “no or only minor decreases”. Besides, the “effect on fluorescence emission signal of LG” value in data set [14] is listed as “minor increase”.

Regarding `C[C@@H]1Cc2c(Cl)cc(C(=O)N[C@@H](Cc3ccccc3)C(=O)O)c(O)c2C(=O)O1` [OTA, ochratoxin A], the “quenching effect” value in data set [7] was “slight”. Moreover, the “effect … of AGP” value in [1] is recorded as “no or only minor decreases”. Further, in data set [9], the “logK of OTA–BSA and AOH–BSA complexes” value was 6.5. Besides, the “effect on fluorescence emission signal of CSN” value in [10] is on record as “slight decreases”.

In the case of `C[C@H]1CCCC(=O)CCC/C=C/c2cc(O)cc(O)c2C(=O)O1` [ZEN, zearalenone], the Kd in [15] (pH 7.4, logK FL Quenching) is 1.26 µM; in [15] (pH 7.4, logK ± SEM 1. (FL quenching)), 1.35 µM; in data set [15] (pH 7.4, logK ± SEM 2. (FL quenching)), 1.45 µM; in data set [15] (pH 7.4, logK ± SEM 3. (FL quenching)) it was 1 µM; in data set [2], 1620 µM; in data set [3], 15.8 µM and 16.2 µM. Further, the dissociation constant (Kd) in data set [16] was 0.372 µM; in data set [17] (pH 7.4, logK FL Enhancement), 0.525 µM; in data set [17] (pH 7.4, logK ± SEM 1. (FL enhancement)) it was 0.661 µM; in data set [17] (pH 7.4, logK ± SEM 2. (FL enhancement)) it was 0.407 µM; in data set [17] (pH 7.4, logK ± SEM 3. (FL enhancement)), 0.55 µM; in data set [6], 891 µM. Further, in [7], the “quenching effect” value is reported as “slight”. Moreover, the “effect … of AGP” value in [1] is reported as “larger, concentration-dependent decreases”. In addition, in data set [8] (bovine, ultracentrifugation, pH 6.8), the “fold higher affinity … vs CSN” value is recorded as “approximately 20 fold”. For the same compound, the “logK of ZEN–BSA and α-ZEL–BSA complexes” value in [9] is reported as 4.8. Further, the “logK of complex with HSA” value in data set [4] was 5.1. In addition, the “logK CSN” value in data set [5] came to 3.48 ± 0.01.

Turning to `O=C1C=C2C(=CCOC2O)O1` (centres unmarked) [PAT, patulin], the “effect … of AGP” value in data set [1] was “no or only minor decreases”.

Take `Cc1cc(O)cc2oc(=O)c3c(O)cc(O)cc3c12` [AOH, alternariol]: in [9], the “logK of OTA–BSA and AOH–BSA complexes” value is recorded as 5.9.

Broadly, the Kd is the constant that tells how readily two partners part at equilibrium.
